Assay results published in PubChem BioAssay AID1963847 (Molecular Pharmacology Branch, DTP, NCI, 2024).

Tested on: 415267-285-R-J2-PDC complex spheroid viability
Experiment: Anticancer human tumor 415267-285-R-J2-PDC patient-derived breast carcinoma cell line growth inhibition [POLQ]
Conditions: for IC50: curve of first compound; for viability, T/C: stronger effect = lower value
Procedure, shortened: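 Three-cell-type spheroids modelling solid tumor plus stroma served as the readout system; POL inhibitors were tested individually and in combination, concentration ranges set by clinical Cmax where known.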

[1] = second compound 0.0316 µM, first compound 0.00949 µM
[2] = second compound 0.0316 µM, first compound 0.03 µM
[3] = second compound 0.0316 µM, first compound 0.0949 µM
[4] = second compound 0.0316 µM, first compound 0.3 µM
[5] = second compound 0.0316 µM, first compound 0.949 µM
[6] = second compound 0.0316 µM, first compound 3 µM
[7] = second compound 0.1 µM, first compound 0.00949 µM
[8] = second compound 0.1 µM, first compound 0.03 µM
[9] = second compound 0.1 µM, first compound 0.0949 µM
[10] = second compound 0.1 µM, first compound 0.3 µM
[11] = second compound 0.1 µM, first compound 0.949 µM
[12] = second compound 0.1 µM, first compound 3 µM
[13] = second compound 0.316 µM, first compound 0.00949 µM
[14] = second compound 0.316 µM, first compound 0.03 µM
[15] = second compound 0.316 µM, first compound 0.0949 µM
[16] = second compound 0.316 µM, first compound 0.3 µM
[17] = second compound 0.316 µM, first compound 0.949 µM
[18] = second compound 0.316 µM, first compound 3 µM
[19] = second compound 1 µM, first compound 0.00949 µM
[20] = second compound 1 µM, first compound 0.03 µM
[21] = second compound 1 µM, first compound 0.0949 µM
[22] = second compound 1 µM, first compound 0.3 µM
[23] = second compound 1 µM, first compound 0.949 µM
[24] = second compound 1 µM, first compound 3 µM
[25] = second compound 3.16 µM, first compound 0.00949 µM
[26] = second compound 3.16 µM, first compound 0.03 µM
[27] = second compound 3.16 µM, first compound 0.0949 µM
[28] = second compound 3.16 µM, first compound 0.3 µM
[29] = second compound 3.16 µM, first compound 0.949 µM
[30] = second compound 3.16 µM, first compound 3 µM
[31] = second compound 10 µM, first compound 0.00949 µM
[32] = second compound 10 µM, first compound 0.03 µM
[33] = second compound 10 µM, first compound 0.0949 µM
[34] = second compound 10 µM, first compound 0.3 µM
[35] = second compound 10 µM, first compound 0.949 µM
[36] = second compound 10 µM, first compound 3 µM
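Further: spheroids exposed to compounds for one week before readout.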
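Wherever viability, T/C is given: luminescence used as stand-in measure of viable cells; 100% = DMSO vehicle control viability.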

With `CC(=O)O[C@H]1C(=O)[C@@]2(C)[C@H]([C@H](OC(=O)c3ccccc3)[C@]3(O)C[C@H](OC(=O)[C@H](O)[C@@H](NC(=O)c4ccccc4)c4ccccc4)C(C)=C1C3(C)C)[C@]1(OC(C)=O)CO[C@@H]1C[C@@H]2O` + COC1C(OC(N)=O)C(O)C(Oc2ccc3c(O)c(NC(=O)c4ccc(O)c(CC=C(C)C)c4)c(=O)oc3c2C)OC1(C)C as the molecule, how does the IC50 (second compound 0.0316 µM) read?
Its IC50 is < 9.49 nM.

And the IC50 (second compound 0.1 µM)?
The IC50 was < 9.49 nM.

What about the IC50 (second compound 0.316 µM) of the same molecule?
Its IC50 is < 9.49 nM.

And the IC50 (second compound 1 µM)?
The IC50 was < 9.49 nM.

What about the IC50 (second compound 3.16 µM) of the same molecule?
Its IC50 is < 9.49 nM.

What about the IC50 (second compound 10 µM) of the same molecule?
Its IC50 is < 9.49 nM.

And the viability, T/C [1]?
The viability, T/C was 13.6%.

And the viability, T/C [2]?
Its viability, T/C is 9.68%.

What about the viability, T/C [3] of the same molecule?
Its viability, T/C is 8.14%.

What about the viability, T/C [4] of the same molecule?
The viability, T/C was 6.55%.

And the viability, T/C [5]?
The viability, T/C was 8.38%.

What about the viability, T/C [6] of the same molecule?
The viability, T/C was 8.03%.

What about the viability, T/C [7] of the same molecule?
Its viability, T/C is 11%.

What about the viability, T/C [8] of the same molecule?
Its viability, T/C is 8.15%.

What about the viability, T/C [9] of the same molecule?
Its viability, T/C is 7.43%.

And the viability, T/C [10]?
The viability, T/C was 7.95%.

And the viability, T/C [11]?
The viability, T/C was 8.29%.

What about the viability, T/C [12] of the same molecule?
Its viability, T/C is 9.45%.

What about the viability, T/C [13] of the same molecule?
The viability, T/C was 13.1%.

What about the viability, T/C [14] of the same molecule?
Its viability, T/C is 9.7%.

And the viability, T/C [15]?
Its viability, T/C is 7.34%.

And the viability, T/C [16]?
The viability, T/C was 8.56%.

What about the viability, T/C [17] of the same molecule?
The viability, T/C was 8.09%.

And the viability, T/C [18]?
The viability, T/C was 7.17%.

And the viability, T/C [19]?
The viability, T/C was 12.9%.

What about the viability, T/C [20] of the same molecule?
The viability, T/C was 8.82%.

What about the viability, T/C [21] of the same molecule?
Its viability, T/C is 8.23%.

And the viability, T/C [22]?
Its viability, T/C is 8.01%.

What about the viability, T/C [23] of the same molecule?
Its viability, T/C is 8.58%.

And the viability, T/C [24]?
Its viability, T/C is 7.75%.

What about the viability, T/C [25] of the same molecule?
The viability, T/C was 13%.

And the viability, T/C [26]?
The viability, T/C was 10.4%.

And the viability, T/C [27]?
The viability, T/C was 8%.

And the viability, T/C [28]?
The viability, T/C was 7.65%.

And the viability, T/C [29]?
The viability, T/C was 8.33%.

What about the viability, T/C [30] of the same molecule?
The viability, T/C was 8.3%.

What about the viability, T/C [31] of the same molecule?
Its viability, T/C is 24.1%.

And the viability, T/C [32]?
The viability, T/C was 9.1%.

What about the viability, T/C [33] of the same molecule?
The viability, T/C was 7.75%.

What about the viability, T/C [34] of the same molecule?
Its viability, T/C is 8.73%.

What about the viability, T/C [35] of the same molecule?
The viability, T/C was 6.75%.

And the viability, T/C [36]?
Its viability, T/C is 9.23%.

`CC(=O)O[C@H]1C(=O)[C@@]2(C)[C@H]([C@H](OC(=O)c3ccccc3)[C@]3(O)C[C@H](OC(=O)[C@H](O)[C@@H](NC(=O)c4ccccc4)c4ccccc4)C(C)=C1C3(C)C)[C@]1(OC(C)=O)CO[C@@H]1C[C@@H]2O` + Cc1cccc(N(C)C(=O)C2C(O)CCN2c2nc(C)cc(C(F)(F)F)c2C#N)c1 was tested. Which IC50 (second compound 0.0316 µM) did it give?
Its IC50 is < 9.49 nM.

And the IC50 (second compound 0.1 µM)?
The IC50 was < 9.49 nM.

What about the IC50 (second compound 0.316 µM) of the same molecule?
The IC50 was < 9.49 nM.

And the IC50 (second compound 1 µM)?
The IC50 was < 9.49 nM.

What about the IC50 (second compound 3.16 µM) of the same molecule?
Its IC50 is < 9.49 nM.

And the IC50 (second compound 10 µM)?
Its IC50 is < 9.49 nM.

And the viability, T/C [1]?
Its viability, T/C is 17.5%.

And the viability, T/C [2]?
Its viability, T/C is 9.49%.

What about the viability, T/C [3] of the same molecule?
Its viability, T/C is 9.45%.

What about the viability, T/C [4] of the same molecule?
Its viability, T/C is 5.12%.

What about the viability, T/C [5] of the same molecule?
Its viability, T/C is 6.11%.

What about the viability, T/C [6] of the same molecule?
The viability, T/C was 8.5%.

What about the viability, T/C [7] of the same molecule?
The viability, T/C was 14.3%.

And the viability, T/C [8]?
The viability, T/C was 10.3%.

And the viability, T/C [9]?
Its viability, T/C is 6.91%.

What about the viability, T/C [10] of the same molecule?
The viability, T/C was 5.82%.

What about the viability, T/C [11] of the same molecule?
The viability, T/C was 6.96%.

What about the viability, T/C [12] of the same molecule?
Its viability, T/C is 7.65%.

And the viability, T/C [13]?
The viability, T/C was 15.2%.

What about the viability, T/C [14] of the same molecule?
The viability, T/C was 10.9%.

What about the viability, T/C [15] of the same molecule?
Its viability, T/C is 8.77%.

And the viability, T/C [16]?
The viability, T/C was 8.04%.

What about the viability, T/C [17] of the same molecule?
Its viability, T/C is 7.71%.

And the viability, T/C [18]?
Its viability, T/C is 6.2%.

What about the viability, T/C [19] of the same molecule?
Its viability, T/C is 16.9%.

And the viability, T/C [20]?
The viability, T/C was 8.87%.

And the viability, T/C [21]?
Its viability, T/C is 7.59%.

What about the viability, T/C [22] of the same molecule?
The viability, T/C was 5.96%.

What about the viability, T/C [23] of the same molecule?
Its viability, T/C is 7.86%.

What about the viability, T/C [24] of the same molecule?
The viability, T/C was 7.38%.

And the viability, T/C [25]?
Its viability, T/C is 13.7%.

And the viability, T/C [26]?
Its viability, T/C is 9.96%.

What about the viability, T/C [27] of the same molecule?
Its viability, T/C is 7.09%.

And the viability, T/C [28]?
The viability, T/C was 7.4%.

What about the viability, T/C [29] of the same molecule?
The viability, T/C was 6.8%.

And the viability, T/C [30]?
Its viability, T/C is 8.17%.

What about the viability, T/C [31] of the same molecule?
Its viability, T/C is 12.7%.

What about the viability, T/C [32] of the same molecule?
The viability, T/C was 10%.

What about the viability, T/C [33] of the same molecule?
The viability, T/C was 8.12%.

And the viability, T/C [34]?
The viability, T/C was 8.5%.

What about the viability, T/C [35] of the same molecule?
The viability, T/C was 8.14%.

What about the viability, T/C [36] of the same molecule?
The viability, T/C was 9.36%.
